What was measured:
[1] = Induction of TFEB nuclear translocation in human HeLa cells expressing EGFP at 30 uM measured at 3 hrs by fluorescence microscopic analysis; assay type: functional
[2] = Induction of TFEB nuclear translocation in human HeLa cells expressing EGFP at 10 uM measured at 6 hrs by fluorescence microscopic analysis; assay type: functional
[3] = Induction of TFEB nuclear translocation in human HeLa cells expressing EGFP at 10 uM measured at 3 hrs by fluorescence microscopic analysis; assay type: functional
[4] = Induction of TFEB nuclear translocation in human HeLa cells expressing EGFP at 30 uM measured at 6 hrs by fluorescence microscopic analysis; assay type: functional
HeLa = assay: Cytotoxicity against human HeLa cells at 30 uM; assay type: toxicity, cell-based

Row | Structure (SMILES) | Activity [1] [%] | Activity [2] [%] | Activity [3] [%] | Activity [4] [%] | Activity (HeLa)
1 | Clc1ccc2[nH]cc(CCC3c4cc5c(cc4CCN3CC3CCOCC3)OCO5)c2c1 (configuration not stated) | 83 | 20 | 15 | 92 | –
2 | COc1cc2c(cc1OC)C(CCc1c[nH]c3ccc(Br)cc13)N(CC1CCOCC1)CC2 (configuration not stated) | 89 | 63 | 53 | 94 | –
3 | Oc1ccc2[nH]cc(CCC3c4cc5c(cc4CCN3CC3CCOCC3)OCO5)c2c1 (configuration not stated) | 72 | 21 | 15 | 81 | –
4 | COc1cc2c(cc1O)CCN(CC1CCOCC1)C2CCc1c[nH]c2ccccc12 (configuration not stated) | 70 | 20 | 20 | 80 | Toxic
5 | COc1cc2c(cc1O)C(CCc1c[nH]c3ccccc13)N(CC1CCOCC1)CC2 (configuration not stated) | 75 | 37 | 22 | 77 | Toxic
6 | c1ccc2c(CCC3c4cc5c(cc4CCN3CC3CCOCC3)OCO5)csc2c1 (configuration not stated) | 15 | 5 | 5 | 20 | –
7 | Fc1ccc2[nH]cc(CC[C@@H]3c4cc5c(cc4CCN3CC3CCOCC3)OCO5)c2c1 | 70 | 33 | 29 | 82 | –
8 | c1ccc2c(CCC3c4cc5c(cc4CCN3CC3CCOCC3)OCO5)c[nH]c2c1 (configuration not stated) | 86 | 67 | 47 | 93 | –
9 | c1ccc(COc2ccc3[nH]cc(CCC4c5cc6c(cc5CCN4CC4CCOCC4)OCO6)c3c2)cc1 (configuration not stated) | 75 | 30 | 12 | 88 | –
10 | c1ccc2c(CCC3c4cc5c(cc4CCN3CC3CCNCC3)OCO5)c[nH]c2c1 (configuration not stated) | 96 | 35 | 22 | 100 | Toxic
11 | Cc1ccc2[nH]cc(CCC3NCCc4cc5c(cc43)OCO5)c2c1 (configuration not stated) | 45 | 10 | 10 | 60 | –
12 | COc1ccc2[nH]cc(CC[C@@H]3c4cc(OC)c(OC)cc4CCN3CC3CCOCC3)c2c1 | 74 | 37 | 23 | 80 | –
13 | Fc1ccc2[nH]cc(CC[C@H]3c4cc5c(cc4CCN3CC3CCOCC3)OCO5)c2c1 | 90 | 60 | 56 | 98 | –
14 | O=CN1CCc2cc3c(cc2C1CCc1c[nH]c2ccccc12)OCO3 (configuration not stated) | 6 | 5 | 6 | 4 | –
15 | OCn1cc(CCC2c3cc4c(cc3CCN2CC2CCOCC2)OCO4)c2ccccc21 (configuration not stated) | 8 | 5 | 5 | 8 | –
16 | c1ccc2[nH]c(CCC3c4cc5c(cc4CCN3CC3CCOCC3)OCO5)cc2c1 (configuration not stated) | 39 | 5 | 5 | 39 | –
17 | Cc1ccc2[nH]cc(CCC3c4cc5c(cc4CCN3CC3CCOCC3)OCO5)c2c1 (configuration not stated) | 83 | 30 | 20 | 85 | –
18 | COc1ccc2[nH]cc(CC[C@H]3c4cc(OC)c(OC)cc4CCN3CC3CCOCC3)c2c1 | 85 | 61 | 44 | 91 | –
19 | c1cnc2[nH]cc(CCC3NCCc4cc5c(cc43)OCO5)c2c1 (configuration not stated) | 70 | 30 | 30 | 70 | Toxic
20 | COc1ccc2[nH]cc(CCC3c4cc5c(cc4CCN3CC3CCOCC3)OCO5)c2c1 (configuration not stated) | 88 | 76 | 74 | 98 | –
21 | COc1cc2c(cc1OC)C(CCc1c[nH]c3ccc(C)cc13)N(CC1CCOCC1)CC2 (configuration not stated) | 92 | 53 | 38 | 91 | –
22 | COc1cc2c(cc1C)C(CCc1c[nH]c3ccccc13)N(CC1CCOCC1)CC2 (configuration not stated) | 76 | 30 | 18 | 81 | –
23 | COc1cc2c(cc1OC)C(CCc1c[nH]c3ccc(O)cc13)N(CC1CCOCC1)CC2 (configuration not stated) | 85 | 34 | 25 | 88 | Toxic
24 | CCCN1CCc2cc3c(cc2C1CCc1c[nH]c2ccccc12)OCO3 (configuration not stated) | 55 | 12 | 11 | 80 | –
25 | COc1cc2c(cc1OC)C(CCc1c[nH]c3ccc(F)cc13)N(CC1CCOCC1)CC2 (configuration not stated) | 88 | 47 | 22 | 95 | –

Row | Structure (SMILES) | Activity [1] [%] | Activity [2] [%] | Activity [3] [%] | Activity [4] [%] | Activity (HeLa)
26 | c1ccc(CN2CCc3cc4c(cc3C2CCc2c[nH]c3ccccc23)OCO4)cc1 (configuration not stated) | 10 | 10 | 10 | 10 | –
27 | c1cnc2[nH]cc(CCC3c4cc5c(cc4CCN3CC3CCOCC3)OCO5)c2c1 (configuration not stated) | 64 | 10 | 10 | 64 | –
28 | Cn1cc(CCC2c3cc4c(cc3CCN2CC2CCOCC2)OCO4)c2ccccc21 (configuration not stated) | 26 | 5 | 5 | 26 | –
29 | N#Cc1ccc2[nH]cc(CCC3c4cc5c(cc4CCN3CC3CCOCC3)OCO5)c2c1 (configuration not stated) | 64 | 10 | 10 | 64 | –
30 | c1ccc2c(CCC3c4cc5c(cc4CCN3Cc3ccncc3)OCO5)c[nH]c2c1 (configuration not stated) | 80 | 50 | 45 | 90 | –
31 | CC(C)CCN1CCc2cc3c(cc2C1CCc1c[nH]c2ccccc12)OCO3 (configuration not stated) | 70 | 20 | 20 | 80 | –
32 | Brc1ccc2[nH]cc(CCC3c4cc5c(cc4CCN3CC3CCOCC3)OCO5)c2c1 (configuration not stated) | 85 | 30 | 10 | 95 | –
33 | Fc1ccc2[nH]cc(CCC3NCCc4cc5c(cc43)OCO5)c2c1 (configuration not stated) | 88 | 54 | 36 | 92 | –
34 | CC(=O)N1CCc2cc3c(cc2C1CCc1c[nH]c2ccccc12)OCO3 (configuration not stated) | 8 | 7 | 6 | 10 | –
35 | COCCN1CCc2cc3c(cc2C1CCc1c[nH]c2ccccc12)OCO3 (configuration not stated) | 70 | 30 | 30 | 80 | –
36 | Oc1cc2c(cc1O)C(CCc1c[nH]c3ccccc13)N(CC1CCOCC1)CC2 (configuration not stated) | 28 | 10 | 10 | 60 | Toxic
37 | c1ccc2c(CCC3c4cc5c(cc4CCN3CCC3CCOCC3)OCO5)c[nH]c2c1 (configuration not stated) | 65 | 5 | 5 | 80 | –
38 | c1ccc2c(CC[C@@H]3NCCc4cc5c(cc43)OCO5)c[nH]c2c1 | 89 | 34 | 30 | 96 | –
39 | COc1cc2c(cc1OC)C(CCc1c[nH]c3ccc(Cl)cc13)N(CC1CCOCC1)CC2 (configuration not stated) | 84 | 37 | 27 | 90 | –
40 | CC(C)CN1CCc2cc3c(cc2C1CCc1c[nH]c2ccccc12)OCO3 (configuration not stated) | 74 | 20 | 20 | 82 | –
41 | CCOc1cc2c(cc1OC)CCN(CC1CCOCC1)C2CCc1c[nH]c2ccccc12 (configuration not stated) | 75 | 28 | 17 | 82 | –
42 | c1ccc2c(c1)ccn2CCC1c2cc3c(cc2CCN1CC1CCOCC1)OCO3 (configuration not stated) | 8 | 5 | 5 | 5 | –
43 | c1ccc2c(CCC3c4cc5c(cc4CCN3Cc3cncnc3)OCO5)c[nH]c2c1 (configuration not stated) | 20 | 10 | 10 | 20 | –
44 | c1ccc2c(CC[C@H]3NCCc4cc5c(cc43)OCO5)c[nH]c2c1 | 76 | 23 | 18 | 77 | –
45 | CN1CCC(CN2CCc3cc4c(cc3C2CCc2c[nH]c3ccccc23)OCO4)CC1 (configuration not stated) | 80 | 40 | 30 | 81 | Toxic
46 | c1ccc2c(CCC3c4cc5c(cc4CCN3CC3CCCCC3)OCO5)c[nH]c2c1 (configuration not stated) | 11 | 8 | 7 | 42 | –
47 | CCC(=O)N1CCN(c2ccc(-n3c(=O)ccc4cnc5ccc(-c6cnc7ccccc7c6)cc5c43)cc2C(F)(F)F)CC1 [TORIN1] | 100 | 100 | 100 | 100 | –
48 | CCN1CCc2cc3c(cc2C1CCc1c[nH]c2ccccc12)OCO3 (configuration not stated) | 65 | 22 | 9 | 84 | –
49 | COc1cc2c(cc1F)C(CCc1c[nH]c3ccccc13)N(CC1CCOCC1)CC2 (configuration not stated) | 70 | 31 | 17 | 79 | –
50 | NC(=O)CN1CCc2cc3c(cc2C1CCc1c[nH]c2ccccc12)OCO3 (configuration not stated) | 20 | 5 | 5 | 20 | –
